Results published in patent US5173405A, “Use of arsenite to reversibly block steroid binding to glucocorticoid receptors in the presence of other steroid receptors” (priority 1990, dated 1992).

What was measured:
[1] = test system: steroid-free glucocorticoid receptors; experiment: Reversal by thiols of arsenite inhibition of [3H]Dex binding to steroid-free receptors; settings: receptors preincubated with 40 uM arsenite 30 min, then thiol 30 min
Procedure: Referring to FIG. 4, steroid-free receptors in pH 8.8 TAPS buffer containing 21 mM Na2 MoO4 were preincubated with 40 uM arsenite for 30 min and then adjusted to various concentrations of DTT or β-MERC by addition of 100× solutions of each thiol in pH 8.8 TAPS buffer. After a further 30 min preincubation, the binding activity of these receptors was assayed by incubating with [^3 H]Dex±excess [^1 H]Dex for 2.5 hr. The amount of specific binding (determined as described above for FIG. 1A) of [^3 H]Dex after DTT(o) and β-MERC preincubation was expressed as a percent of the untreated control.
(§1) The growth of HTC cells at 37° C. in spinner and monolayer cultures of Swim's S77 medium (GIBCO; Grand Island, N.Y.) supplemented with 5% fetal and 5% newborn bovine serum (both obtained from Biofluids; Rockville, Md.) and 0.03% glutamine are described in Thompson, 1979. HTC cell cytosol containing the steroid-free receptors was prepared, stored in liquid N2, and labelled as set forth in Reichman et al., Biochem., 23, 5376-5384, 1984; Simons et al., Biochem., 23, 6876-6882, 1984. […] The specifically bound [^3 H]Dex was determined by first adding a 10% dextran-coated charcoal solution (added volume=20% of reaction solution volume) to remove free steroid and then subtracting the nonspecific binding seen in the presence of excess [^1 H]Dex.

[2] = target: T1, glucocorticoid receptors (HTC cell receptors) (Rattus norvegicus, UniProt P06536); experiment: [3H]Dex binding to HTC cell cytosol receptors after preincubation with MMTS or arsenite; settings: for inactivation of steroid-binding activity of glucocorticoid receptors: low concentrations of MMTS, very low concentrations of arsenite
T1 sequence (P06536 1-795): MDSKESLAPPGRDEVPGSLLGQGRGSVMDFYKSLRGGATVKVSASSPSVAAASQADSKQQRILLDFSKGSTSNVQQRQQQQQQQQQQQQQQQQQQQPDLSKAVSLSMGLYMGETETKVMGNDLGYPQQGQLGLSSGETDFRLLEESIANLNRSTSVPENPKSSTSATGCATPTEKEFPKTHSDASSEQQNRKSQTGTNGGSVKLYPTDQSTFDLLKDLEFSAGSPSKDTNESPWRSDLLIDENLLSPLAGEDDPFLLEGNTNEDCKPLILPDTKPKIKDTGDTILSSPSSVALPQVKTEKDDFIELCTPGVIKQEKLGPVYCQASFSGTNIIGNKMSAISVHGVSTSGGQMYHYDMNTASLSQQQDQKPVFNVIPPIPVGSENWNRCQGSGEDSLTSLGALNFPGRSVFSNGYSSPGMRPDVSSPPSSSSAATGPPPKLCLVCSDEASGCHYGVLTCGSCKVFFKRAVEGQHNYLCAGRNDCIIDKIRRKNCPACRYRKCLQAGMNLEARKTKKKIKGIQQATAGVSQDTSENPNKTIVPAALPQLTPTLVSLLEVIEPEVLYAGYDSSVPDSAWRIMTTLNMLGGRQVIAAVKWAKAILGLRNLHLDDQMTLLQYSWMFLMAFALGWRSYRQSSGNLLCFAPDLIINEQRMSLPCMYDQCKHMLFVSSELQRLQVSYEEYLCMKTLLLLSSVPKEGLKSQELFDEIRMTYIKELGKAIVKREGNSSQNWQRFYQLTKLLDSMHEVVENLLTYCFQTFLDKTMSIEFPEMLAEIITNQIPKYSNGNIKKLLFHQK
Procedure: Referring to FIG. 1A, duplicate samples of HTC cell (Thompson, E.B., Methods Enzymol., 58, 544-551 [1979]) cytosol solution were pretreated with various concentrations of MMTS in absolute EtOH (final concentration of ETOH=1%) for 0 hr (.smallcircle.), 0.5 hr, or 2.5 hr before the addition of [^3 H]Dex±[^1 H]Dex. After a further 2.5 hr incubation, the free steroid was removed by the addition of dextran-coatedcharcoal. The specific binding to receptors was determined as described by Miller and Simons, J. Biol. Chem., 263, 15217-15225, 1988) (see also section entitled "Cells and preparation and labelling of receptors" below) and plotted as percentage of the EtOH-pretreated control versus the concentration of MMTS. The data points shown are the average values derived from 1-5 experiments.
Referring to FIG. 1B, duplicate samples of HTC cell cytosol solution were treated with various concentrations of MMTS for 2.5 hr before determining the remaining steroid binding activity of the receptors as described above for FIG. 1A.
Referring to FIG. 3, steroid-free receptors containing 21 mM Na2 MoO4 were incubated with various concentrations of 100× (in pH 8.8 TAPS buffer) arsenite for 30 min. The binding activity of these receptors was then assayed by incubating with [^3 H]Dex±excess [^1 H]Dex for 2.5 hr. The amount of specific binding of [^3 H]Dex (determined as described above for FIG. 1A) after arsenite preincubation was expressed as a percent of the untreated control.
as §1, with “1979.” for “1979. HTC cell cytosol containing the steroid-free receptors was prepared, stored in liquid N2, and labelled as set forth in Reichman et al., Biochem., 23, 5376-5384, 1984; Simons et al., Biochem., 23, 6876-6882, 1984.”

[3] = test system: 16 kDa steroid-binding core fragment of HTC cell receptors; experiment: [3H]Dex binding to trypsin-generated 16 kDa core fragment after preincubation with arsenite or MMTS; set-up: species or system rat; settings: preincubation with arsenite 30 min or MMTS 2.5 hr
Procedure: Referring to FIG. 6, duplicate samples of steroid-free receptors in pH 8.8 TAPS buffer containing 21 mM Na2 MoO4 were digested with trypsin (14 μg/ml for 1 hr), to generate the 16 kDa core fragment of the receptor, followed by a 10-fold (wt/wt) excess of soybean trypsin inhibitor to block further digestion. The samples were then treated with various concentrations of arsenite (for 30 min) or MMTS (for 2.5 hr) before determining the remaining [^3 H]Dex binding as described above for FIG. 1A.
as §1

[4] = test system: human estrogen and progesterone receptors (other receptors); experiment: [3H]steroid binding of estrogen and progesterone receptors in MCF-7 cell cytosol after arsenite preincubation; settings: arsenite between 100 and 500 μM
Procedure: (§2) Referring to FIG. 7, steroid-free receptors (glucocorticoid, estrogen, and progesterone receptors in MCF-7 cell [from NCI, NIH] cytosol in pH 7.5 HEPES buffer containing 21 mM Na2 MoO4) were treated with various concentrations of 100× (in pH 7.5 HEPES buffer) sodium arsenite for 30 min. The binding activity of these receptors was then assayed by incubating with [^3 H]steroid±[^1 H]steroid for 2.5 hr. The amount of specific binding of [^3 H]steroid (as described above for FIG. 1A) after arsenite preincubation was expressed as the percent of the untreated control for glucocorticoid estrogen (Δ), and progesterone (.smallcircle.) receptors.
(§3) MCF-7 cells (obtained from NIH) were grown as monolayer cultures in Richter's IMEM (NIH Media Unit, NIH) (supplemented with 10% fetal bovine serum [Biofluids] and 0.03% glutamine) in an atmosphere of 5% CO2 /95% air at 37° C. Crude receptor solutions were prepared by freeze-thaw lysis (in liquid N2) of cells washed in phosphate buffered saline (Reichman et al., 1984; Simons et al., 1984). The cell lysates were treated with either […] TAPS or pH 7.5 HEPES buffer (containing 20 mM Na2 MoO4) and centrifuged at 2500×g for 10 min or 100,000×g for 60 min. […]

[5] = test system: human glucocorticoid receptors; experiment: [3H]steroid binding of glucocorticoid receptors in MCF-7 cell cytosol after arsenite preincubation; settings: arsenite between 100 and 500 μM
Procedure: as §2, §3

| Structure (SMILES) | reversal of arsenite inhibition of steroid binding [1] | inactivation of steroid-binding activity of glucocorticoid receptors [2] | preferred MMTS concentration for blocking rat glucocorticoid receptors ([2]; rat glucocorticoid receptors) | inhibition of [3H]Dex binding to 16 kDa steroid-binding core fragment [3] | effect on other receptors [4] | inhibition of glucocorticoid binding [5] |
| --- | --- | --- | --- | --- | --- | --- |
| O[C@H](CS)[C@H](O)CS (racemic) [DTT, dithiothreitol] | reversal of arsenite inhibition of steroid binding |  |  |  |  |  |
| CSS(C)(=O)=O [MMTS, methyl methanethiolsulfonate] |  | specifically and reversibly inactivate all of the steroid-binding activity of glucocorticoid receptors | approximately 300 μM | inhibition of [^3 H]Dex binding |  |  |
| O=[As]O [arsenite, sodium arsenite] |  | specifically and reversibly inactivate all of the steroid-binding activity of glucocorticoid receptors |  | inhibition of [^3 H]Dex binding | little effect on other receptors | complete inhibition of glucocorticoid binding |
| OCCS [β-MERC, β-mercaptoethanol] | reversal of arsenite inhibition of steroid binding |  |  |  |  |  |
